Literature values as cited in paper PMC6008465 (British Journal of Cancer, 2018).

System: patients
Design: method as in Mekinist (trametinib) tablets package insert, Novartis 2017
Conditions: oral; ref Mekinist (trametinib) tablets package insert, Novartis 2017; cited from earlier work

CC(=O)Nc1cccc(-n2c(=O)n(C3CC3)c(=O)c3c(Nc4ccc(I)cc4F)n(C)c(=O)c(C)c32)c1 [trametinib]
Adverse events associated in clinical trials: retinal pigment epithelial detachment, retinal vein occlusion, interstitial lung disease, skin toxicity, and cardiomyopathy
